Data set [1] deals with T1, recombinant neprilysin (NEP) (Homo sapiens, UniProt P08473).
T1 construct: purchased Anaspec, Fremont, California, USA (SensoLyte 520 Neprilysin Activity Assay Kit)
Nature of the data set: Neprilysin activity assay with recombinant enzyme (SensoLyte 520). The format is biochemical. As to conditions: four to five independent experiments; for activity of recombinant NEP: dose-dependent, NL1 0.1, 0.3, 1, 3 μM, neurolide 1, 5, 10, 100 μM, 5-FAM/QXL substrate, Ex/Em 485/535 nm, 2 h. The protocol:
NEP activity was measured using the SensoLyte 520 Neprilysin Activity Assay Kit *Fluorimetric* (Anaspec, Fremont, California, USA) following the protocol provided by the manufacturer. Briefly, Aβ1-42 was dissolved in anhydrous DMSO to a stock concentration of 5 mM, followed by dilutions in assay buffer (100 μM, 50 μM, and 5 μM). Both NL1 (3 μM, 1 μM, 0.3 μM, 0.1 μM) and neurolide (100, 10, 5, and 1 μM) were dissolved in assay buffer. Randomly selected two additional NL1-derived peptides, NLp4, and NLp7 (5 μM, Table 1), were included in the analysis. The NEP solution (40 μl) was mixed with 10 μl of either NL1 or peptides and supplemented with 50 μl of NEP substrate (5-FAM/QXL), and the final mixture was incubated in black optical-bottom 96-well plate (Nunc, Rochester, New York, USA). In co-stimulation experiments, Aβ1-42, prepared as described above, was added to the solution in final concentrations either 0.5 μM or 5 μM. The fluorescence signal was recorded at Ex/Em = 485/535 nm every 20 min for 2 h. The data are presented as the relative activity of NEP alone.

Another data set deals with T2, brain-derived NEP (Mus musculus, UniProt Q61391).
T2 construct: Clear supernatants were used as membrane-extracted fractions; from tissue; host or cells: adult mouse brain without cerebellum, Triton X-100-extracted membrane fraction
T2 sequence (Q61391 1-750): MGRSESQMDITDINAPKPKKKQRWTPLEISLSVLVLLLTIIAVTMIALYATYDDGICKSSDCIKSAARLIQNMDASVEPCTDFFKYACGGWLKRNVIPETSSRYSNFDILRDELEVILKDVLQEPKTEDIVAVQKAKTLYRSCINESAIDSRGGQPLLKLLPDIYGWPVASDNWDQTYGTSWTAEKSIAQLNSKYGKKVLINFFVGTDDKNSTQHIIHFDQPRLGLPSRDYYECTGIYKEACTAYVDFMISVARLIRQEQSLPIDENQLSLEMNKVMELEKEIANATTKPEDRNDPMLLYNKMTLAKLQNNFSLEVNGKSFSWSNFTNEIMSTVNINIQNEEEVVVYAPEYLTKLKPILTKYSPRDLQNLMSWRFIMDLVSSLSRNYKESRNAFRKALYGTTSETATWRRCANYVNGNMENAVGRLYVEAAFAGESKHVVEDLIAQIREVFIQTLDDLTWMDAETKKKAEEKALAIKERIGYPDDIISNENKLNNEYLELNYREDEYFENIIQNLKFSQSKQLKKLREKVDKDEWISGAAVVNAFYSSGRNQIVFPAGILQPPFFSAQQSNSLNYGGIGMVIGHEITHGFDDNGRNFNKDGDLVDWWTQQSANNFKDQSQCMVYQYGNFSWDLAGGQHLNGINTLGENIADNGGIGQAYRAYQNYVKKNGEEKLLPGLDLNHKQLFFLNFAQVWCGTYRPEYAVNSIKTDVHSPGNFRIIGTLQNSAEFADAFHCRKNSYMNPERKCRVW
Nature of the data set: Neprilysin activity in NEP-enriched brain membrane fraction of WT mice. The class given is biochemical, mouse (C57Bl/6j). As to conditions: 40 μg protein, n = 5. The protocol:
To measure NEP activity in brain tissue, whole brains without cerebellum were dissected from adult mice (C57Bl/6j or 5XFAD) and homogenized with a Teflon-glass homogenizer in five volumes (w/v) of ice-cold lysis buffer containing PBS (pH 7.4), 0.25 M sucrose and protease inhibitor cocktail (Complete™, EDTA-free, Roche Diagnostics, Indianapolis, IN). The homogenates were centrifuged at 9000 × g for 15 min at 4 °C. The supernatants were further centrifuged at 20,000 × g at 4 °C for 20 min. The resulting pellets were solubilized in resuspension buffer containing PBS (pH 7.4) and 1% Triton X-100 for 1 h on ice and again centrifuged at 20,000 × g at 4 °C for 20 min. Clear supernatants were used as membrane-extracted fractions. Protein concentrations of Triton-extracted membrane fractions were determined using the Pierce BCA Protein Assay kit (Thermo Fisher Scientific). The standard assay mixture consisted of membrane fraction containing 40 μg total protein diluted in 40 μl of dilution buffer, 10 μl of testing compound (NL1, neurolide or vehicle), and 50 μl of NEP substrate (5-FAM/QXL; Anaspec) in a total volume of 100 μl. The reaction was initiated by adding substrate to the assay mixture. […] Positive and negative controls were set up according to the manufacturer’s protocol (Anaspec). Fluorescence was measured at Ex/Em = 485/535 nm every 20 min for 2 h. The data were expressed as percentage of relative activity of neprilysin.

A short description of data set [2]: Integrity after prolonged incubation under aggregation assay conditions (immunoblot). The class given is physicochemical. As to conditions: aggregation buffer 50 mM Tris pH 7.4, 37 °C, 8 days; His-tagged NL1 200 nM, biotinylated neurolide 6.7 μM; SDS-PAGE and Western blot versus fresh samples. The protocol: After 8-day incubation, they were subjected to conventional SDS polyacrylamide gel electrophoresis on a pre-casted gel (Any kD Mini-PROTEAN TGX gel, Bio-Rad) and transferred to a PVDF membranes (Millipore) together with freshly prepared samples of sNL1 and b-neurolide as corresponding positive controls. Subsequently, membranes were blocked in 5% (wt/vol) non-fat dry milk in PBST (PBS containing 0.05% [vol/vol] Tween-20). To detect sNL1, blots were probed overnight with a 6x-His tag monoclonal antibody (1:2000, Thermo Fisher Scientific) at 4 °C, followed by incubation for 1 h at room temperature with an anti-mouse horseradish peroxidase (HRP)-conjugated secondary antibody (1:10,000, Thermo Fisher Scientific). B-neurolide was detected by incubation for 1 h at room temperature with a streptavidin-HRP complex (1:5000, Dako). Chemiluminescent signal on the blot was developed by employing the SuperSignal ELISA Femto Substrate kit (Thermo Fisher Scientific) according to the manufacturer’s instructions, and images were acquired using an AlphaImager system (Alpha Innotech).
Supplementary file 12035_2024_4475_Fig8_ESM.png: Supplementary Fig. 3. […] NL1 (200 nM; R&D Systems) and biotinylated neurolide (6.7 μM; Schafer-N) were dissolved in the aggregation buffer, incubated at 37°C for 8 days, followed by conventional immunoblotting. […]
(Immunoblotting shows a protein as a band on a membrane.)

Bridges are numbered along the chain shown (N, C = ends). Roman numbers before positions name the chains, in order. Where no end group is shown, it is not given here.

T1 sequence (P08473 whole entry): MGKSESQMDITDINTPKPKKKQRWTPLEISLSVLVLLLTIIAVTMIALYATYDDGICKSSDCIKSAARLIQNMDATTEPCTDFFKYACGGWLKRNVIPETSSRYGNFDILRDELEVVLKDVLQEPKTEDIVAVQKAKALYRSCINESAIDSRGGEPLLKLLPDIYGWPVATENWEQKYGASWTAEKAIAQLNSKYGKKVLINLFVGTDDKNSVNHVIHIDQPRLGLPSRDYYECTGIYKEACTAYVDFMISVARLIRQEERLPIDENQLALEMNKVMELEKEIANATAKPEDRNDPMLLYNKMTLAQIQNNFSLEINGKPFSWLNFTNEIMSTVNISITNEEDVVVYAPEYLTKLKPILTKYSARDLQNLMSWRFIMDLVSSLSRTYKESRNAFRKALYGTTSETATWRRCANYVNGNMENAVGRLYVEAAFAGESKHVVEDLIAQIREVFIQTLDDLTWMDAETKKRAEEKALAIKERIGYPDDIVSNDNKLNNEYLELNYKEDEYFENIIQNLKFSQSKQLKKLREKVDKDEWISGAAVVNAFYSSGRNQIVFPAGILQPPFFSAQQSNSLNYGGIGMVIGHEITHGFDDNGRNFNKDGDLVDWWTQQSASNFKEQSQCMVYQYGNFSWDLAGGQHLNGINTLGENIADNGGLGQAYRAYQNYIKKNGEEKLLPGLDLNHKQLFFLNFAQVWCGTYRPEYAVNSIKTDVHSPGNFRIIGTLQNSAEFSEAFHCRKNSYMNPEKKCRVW

On to “I: SEGNRWSNSTKGLFQRAKK-NH2 / II: SEGNRWSNSTKGLFQRAK / III: SEGNRWSNSTKGLFQRA / IV: SEGNRWSNSTKGLFQRA (amide I:18-IV:C, I:19-II:C, II:18-III:C; C-terminus assumed) [neurolide]”, for which the “activity of recombinant NEP” value in data set [1] is given as “significantly inhibited”. Besides, the “activity of recombinant NEP in the presence of Aβ1-42” value in data set [1] (neurolide 10 μM with Aβ1-42 at 0.5 μM or 5 μM) is listed as “significantly inhibited”. In addition, the “activity of brain-derived NEP” value at brain-derived NEP (neurolide 10 μM) is listed as “significantly decreased”. The “integrity after prolonged incubation” value in data set [2] is listed as “remained intact”.

B1: NL1: recombinant rat neuroligin-1, soluble ectodomain (R&D systems) (protein, UniProt Q62765 46-697, looked up)
extracellular domain: QKLDDVDPLVTTNFGKIRGIKKELNNEILGPVIQFLGVPYAAPPTGEHRFQPPEPPSPWSDIRNATQFAPVCPQNIIDGRLPEVMLPVWFTNNLDVVSSYVQDQSEDCLYLNIYVPTEDVKRISKECARKPGKKICRKGDIRDSGGPKPVMVYIHGGSYMEGTGNLYDGSVLASYGNVIVITVNYRLGVLGFLSTGDQAAKGNYGLLDLIQALRWTSENIGFFGGDPLRITVFGSGAGGSCVNLLTLSHYSEGNRWSNSTKGLFQRAIAQSGTALSSWAVSFQPAKYARILATKVGCNVSDTVELVECLQKKPYKELVDQDVQPARYHIAFGPVIDGDVIPDDPQILMEQGEFLNYDIMLGVNQGEGLKFVENIVDSDDGVSASDFDFAVSNFVDNLYGYPEGKDVLRETIKFMYTDWADRHNPETRRKTLLALFTDHQWVAPAVATADLHSNFGSPTYFYAFYHHCQTDQVPAWADAAHGDEVPYVLGIPMIGPTELFPCNFSKNDVMLSAVVMTYWTNFAKTGDPNQPVPQDTKFIHTKPNRFEEVAWTRYSQKDQLYLHIGLKPRVKEHYRANKVNLWLELVPHLHNLNDISQYTSTTTKVPSTDITLRPTRKNSTPVTSAFPTAKQDDPKQQPSPFSVDQRDYSTELS
modifications: extracellular domain
Consider B1, for which the “activity of recombinant NEP” value in data set [1] is recorded as “significantly inhibited”. The “activity of brain-derived NEP” value with brain-derived NEP (sNL1 0.3 μM) was “significantly decreased”. Moreover, the “integrity after prolonged incubation” value in data set [2] is “remained intact”.

The values above are taken from paper PMC11790763, “A Peptide Motif Covering Splice Site B in Neuroligin-1 Binds to Aβ and Acts as a Neprilysin Inhibitor” (Molecular Neurobiology, 2024).
